Data on one compound can be found in ChEMBL document CHEMBL4354833, “Kinetic Target-Guided Synthesis: Reaching the Age of Maturity” (J Med Chem, 2020).

For the experiment, the target named is T1, Prostaglandin G/H synthase 2 (Homo sapiens, UniProt P35354).
T1 sequence (P35354 whole entry): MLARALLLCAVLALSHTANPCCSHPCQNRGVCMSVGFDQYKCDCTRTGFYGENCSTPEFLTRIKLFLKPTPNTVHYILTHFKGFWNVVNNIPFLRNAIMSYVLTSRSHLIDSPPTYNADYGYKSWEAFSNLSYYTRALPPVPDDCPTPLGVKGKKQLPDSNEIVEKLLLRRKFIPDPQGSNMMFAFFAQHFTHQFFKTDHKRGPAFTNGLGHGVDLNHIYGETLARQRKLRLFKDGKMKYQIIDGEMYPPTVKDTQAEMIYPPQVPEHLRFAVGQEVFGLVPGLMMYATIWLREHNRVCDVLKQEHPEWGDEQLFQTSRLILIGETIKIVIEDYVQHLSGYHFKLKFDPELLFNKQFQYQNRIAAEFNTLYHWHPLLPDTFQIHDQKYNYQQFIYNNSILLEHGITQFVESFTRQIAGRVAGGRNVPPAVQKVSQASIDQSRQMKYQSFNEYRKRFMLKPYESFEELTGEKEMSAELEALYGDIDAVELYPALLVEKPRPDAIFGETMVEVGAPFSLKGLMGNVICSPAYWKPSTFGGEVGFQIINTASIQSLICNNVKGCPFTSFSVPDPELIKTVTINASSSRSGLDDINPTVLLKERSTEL
Description: Binding affinity to human COX2.

The compound `Cc1cnc(Cn2cc(-c3onc(-c4ccccc4)c3-c3ccc(S(N)(=O)=O)cc3)nn2)c(C)c1[18F]` returned a Kd of 10 nM.
